Data published in ChEMBL document CHEMBL1150642, “Hirsutellide A, a new antimycobacterial cyclohexadepsipeptide from the entomopathogenic fungus Hirsutella kobayasii” (J Nat Prod, 2002).
In brackets after ≈: the same amount, converted by molar mass. Where a SMILES comes first, the peptide text is derived from it. [ ]: non-standard residue; d: D form. aIle = CC[C@@H](C)[C@H](N)C(=O)O; dPhLac = O=C(O)[C@H](O)Cc1ccccc1; Sar = CNCC(=O)O

What was measured:
Plasmodium falciparum = assay: Antimalarial activity as reduced parasitaemia against multidrug-resistant Plasmodium falciparum K1 by [3H]hypoxanthine uptake; type: functional, organism-based
[1] = Cytotoxicity against human BC1 cells; type: functional, cell-based
Vero = assay: Cytotoxicity against african green monkey Vero cells at 50 ug/mL by SRB assay; type: cell-based; settings: Chlorocebus sabaeus
[2] = test system: Mycobacterium tuberculosis; assay: Antimycobacterial activity against Mycobacterium tuberculosis H37Ra by Microplate Alamar Blue Assay; type: functional

**Q.** For `C[C@@H]1CC[C@H]2[C@@H](C)C(=O)O[C@@H]3O[C@@]4(C)CC[C@@H]1[C@]32OO4` [ARTEMISININ], which IC50 (Plasmodium falciparum) is on record?
**A.** Its IC50 is 0.001 µg/mL (≈ 0.00354 µM).

**Q.** Which IC50 [1] does the source give for `Cc1c2ccncc2c(C)c2c1[nH]c1ccccc12` [ELLIPTECINE] here?
**A.** The IC50 was 0.3 µg/mL (≈ 1.22 µM).

**Q.** Which IC50 (Vero) does the source give for `CC[C@@H](C)[C@@H]1NC(=O)[C@@H](Cc2ccccc2)OC(=O)CN(C)C(=O)[C@H]([C@H](C)CC)NC(=O)[C@@H](Cc2ccccc2)OC(=O)CN(C)C1=O` [HIRSUTELLIDE A] (cyclo([Sar][dPhLac][aIle][Sar][dPhLac][aIle])) here?
**A.** The IC50 was 2.8 µg/mL (≈ 4.21 µM).

**Q.** What about the Activity (Plasmodium falciparum) of the same molecule?
**A.** Its Activity is “Not toxic”.

**Q.** What about the MIC [2] of the same molecule?
**A.** Its MIC is 6 µg/mL (≈ 9.03 µM).

**Q.** With `NNC(=O)c1ccncc1` [ISONIAZID] as the molecule, how does the MIC [2] read?
**A.** Its MIC is 0.04 µg/mL (≈ 0.292 µM).

**Q.** Which MIC [2] does the source give for `NC[C@H]1O[C@H](O[C@H]2[C@H](O)[C@@H](O[C@H]3O[C@H](CO)[C@@H](O)[C@H](N)[C@H]3O)[C@H](N)C[C@@H]2N)[C@H](O)[C@@H](O)[C@@H]1O.O=S(=O)(O)O` [KANAMYCIN SULFATE] here?
**A.** The MIC was 2 µg/mL.
